# In patent publication US20180245049A1, “METHOD FOR INDUCING DIFFERENTIATION OF STEM CELLS” (STICHTING KATHOLIEKE UNIVERSITEIT, priority 2015, published 2018):
# Tests used:
# [1] = test system: hMSCs; test: Lineage commitment and differentiation of gel-encapsulated hMSCs in bipotential differentiation medium (STRO-1, Osterix, Oil-red O staining); format: cell-based, human
# Protocol: Cell Culture. Human Mesenchymal Stem Cells (hMSCs) were obtained from Lonza, Inc. (Switzerland). Cells were then cultured in α-MEM medium (lnvitrogen) supplemented with 10% fetal bovine serum (FBS), 1% penicillin/streptomycin and incubated in a humidified atmosphere containing 5% (v/v) CO2 at 37° C. For the encapsulation of cells in the gels, first, the cell pellets were obtained by centrifugation. Then 500 μL of the cold polymer solution (˜10° C.) was added directly to the pellet, followed by a gentle pipetting up and down 3-4 times to ensure a homogeneous mixture that was directly put onto a cover slip in a 6-well plate (also kept cold). Thereafter, the solution was sandwiched between two cover slips and the well plate was transferred to a 37° C. incubator. The volume of the suspension was chosen (500 μL) in order to obtain hydrogel thickness in the range of 3 mm. […] Afterwards, the gel becomes stiffer with time and attains the final stiffness in 2-3 minutes. This favors the supporting of cells in 3D rather than the cells settling at the bottom. After gel formation, the two cover slips were removed and α-MEM medium (without serum) was added. All cell culture experiments were carried out without any serum in the medium for the first 6 h of culture. Then, α-MEM medium with 10% serum was added. All cells were used at low passage numbers (≤passage 4), were subconfluently cultured and were seeded at 10^6 cells/mL for the purpose of the experiments and in order to avoid cell-cell contacts. The lineage commitment and differentiation of the gel encapsulated hMSCs after 96 h and 3 weeks of culture, respectively, were investigated with bipotential differentiation medium (1:1 v/v osteogenic and adipogenic media, Lonza). For all the experiments, a non-functionalized soft polymer gel (cell culture in growth medium) served as control. […] The pharmacological agents used were 50 μM Blebbistatin (EMD Biosciences-Calbiochem), 1 μM cytochalasin D (Sigma) and 50 nM Taxol (Abcam). The hMSCs were exposed to each pharmacological agent for 1 h, 24 h and 72 h, respectively, after seeding on a modified polymer. For antibody inhibition studies, cells were preincubated with 5 ng/mL anti-α1, 2, 3 and 5-β1, 2 (all from Santa Cruz Biotechnology). For competition experiments with soluble RGD peptides, the cells were incubated in 1 mL of cell culture media containing 200 μg of RGDS peptides during 20 min on plastic and then transferred to the polymer gels. To evaluate proliferation, total double-stranded DNA content was determined by using the PicoGreen assay as previously reported.
# Immunostaining. […]
# [2] = test system: hMSCs; test: Live/dead assay (calcein-AM and MTT) of gel-encapsulated cells; format: cell-based, human; conditions: live/dead assay after 48 h and 96 h of culture, 50 nM
# Protocol: Cell Culture. Human Mesenchymal Stem Cells (hMSCs) were obtained from Lonza, Inc. (Switzerland). Cells were then cultured in α-MEM medium (lnvitrogen) supplemented with 10% fetal bovine serum (FBS), 1% penicillin/streptomycin and incubated in a humidified atmosphere containing 5% (v/v) CO2 at 37° C. For the encapsulation of cells in the gels, first, the cell pellets were obtained by centrifugation. Then 500 μL of the cold polymer solution (˜10° C.) was added directly to the pellet, followed by a gentle pipetting up and down 3-4 times to ensure a homogeneous mixture that was directly put onto a cover slip in a 6-well plate (also kept cold). Thereafter, the solution was sandwiched between two cover slips and the well plate was transferred to a 37° C. incubator. The volume of the suspension was chosen (500 μL) in order to obtain hydrogel thickness in the range of 3 mm. […] To evaluate proliferation, total double-stranded DNA content was determined by using the PicoGreen assay as previously reported.
# MTT Assay. As described in literature, briefly, cell viability was determined by the 3-(4,5-dimethylthiazol-2-yl)-2,5-diphenyltetrazolium bromide (MTT) assay and the data are presented as a percentage of control viability.
# Live/Dead Staining. Cell viability was determined with the live/dead viability/cytotoxicity kit (Molecular Probes), according to the manufacturer's protocol.
compound,measurement,setting,value
CC(=O)O[C@H]1C(=O)[C@@]2(C)[C@H]([C@H](OC(=O)c3ccccc3)[C@]3(O)C[C@H](OC(=O)[C@H](O)[C@@H](NC(=O)c4ccccc4)c4ccccc4)C(C)=C1C3(C)C)[C@]1(OC(C)=O)CO[C@@H]1C[C@@H]2O [Taxol],hMSCs commitment after Taxol treatment,[1]; 50 nM,decrease in hMSCs commitment
same,cell viability after Taxol treatment,[2],did not affect cell viability
Cc1ccc2c(c1)C(=O)C1(O)CCN(c3ccccc3)C1=N2 (centres unmarked) [blebbistatin],STRO-1 in encapsulated cells in presence of blebbistatin,"[1]; 50 μM, all the polymer gels",high levels of STRO-1
same,hMSCs commitment in presence of blebbistatin,"[1]; 50 μM, all the polymer gels",inhibited the hMSCs commitment
C=C1[C@@H](C)[C@H]2[C@H](Cc3ccccc3)NC(=O)[C@]23[C@H](OC(C)=O)/C=C/[C@@](C)(O)C(=O)[C@@H](C)C/C=C/[C@H]3[C@@H]1O [cytochalasin-D],hMSCs commitment after cytochalasin-D treatment,"[1]; 1 μM, towards both osteogenesis and adipogenesis",overall decreased commitment
